Reference: publication doi:10.1101/2024.12.13.628427v1 (biorxiv, 2024)

Molecular target: T1, FBXO21 (Homo sapiens, UniProt O94952)
T1 sequence (O94952 1-628): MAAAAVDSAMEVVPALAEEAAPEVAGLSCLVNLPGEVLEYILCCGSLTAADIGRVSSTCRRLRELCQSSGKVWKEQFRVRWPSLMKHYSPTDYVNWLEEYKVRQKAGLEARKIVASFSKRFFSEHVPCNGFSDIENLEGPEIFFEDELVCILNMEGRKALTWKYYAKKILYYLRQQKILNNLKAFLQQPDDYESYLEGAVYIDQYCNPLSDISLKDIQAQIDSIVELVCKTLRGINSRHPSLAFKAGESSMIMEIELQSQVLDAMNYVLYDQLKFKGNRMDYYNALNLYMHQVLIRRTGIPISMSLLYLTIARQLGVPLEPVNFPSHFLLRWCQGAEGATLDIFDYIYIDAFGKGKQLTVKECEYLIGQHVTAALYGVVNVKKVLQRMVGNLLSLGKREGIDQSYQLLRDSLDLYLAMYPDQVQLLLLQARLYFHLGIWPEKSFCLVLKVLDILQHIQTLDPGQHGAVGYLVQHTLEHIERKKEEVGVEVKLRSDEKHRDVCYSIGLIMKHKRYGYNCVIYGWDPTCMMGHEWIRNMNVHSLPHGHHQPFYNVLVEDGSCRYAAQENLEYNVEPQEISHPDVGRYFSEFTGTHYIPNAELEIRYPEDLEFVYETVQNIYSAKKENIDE
Assay: in vitro ubiquitination of GFP-p85α, Western blot
Assay type: biochemical

IC50: 2.4 nM
Compound: O=C(O)Cc1cc(-c2ccc(F)cc2)ccc1-c1ccc(F)cc1 [57-057]
